Publication PMC3569412, “In Vivo Imaging with Fluorescent Smart Probes to Assess Treatment Strategies for Acute Pancreatitis” (PLoS ONE, 2013)

Tests used:
[1] = test system: trypsin activity in rat pancreas; test: in vivo optical imaging of activatable probe signal in pancreas, caerulein-injection pancreatitis model; settings: Camostat 300 mg/kg orally; vs untreated caerulein animals; P<0.001
Protocol: 280–320 g female Sprague Dawley rats were received from Charles Rivers Laboratory. Animals were maintained in a facility with a controlled temperature (21–24°C) and lighting (12∶12 h light: dark cycle). Animals were placed on a chlorophyll-free diet (Harlan TK2916) 10 days prior and for the duration of the imaging study to reduce the amount of autofluorescence and had free access to drinking water. One day prior to the experiment, animals were shaved at the abdomen for imaging studies. The pancreatitis model was induced by hyperstimulation with the cholecystokinin (CCK) analog caerulein (Sigma-Aldrich, St. Louis, MO). […]
(§1) In vivo optical imaging studies were conducted using a spectral imaging system, Maestro (Perkin Elmer, Boston, MA). […] Animals were imaged before the start of the study for background/autofluorescence, and at 20 minutes after the mPEG-PL-Cy5.5 probe administration for basal increase in fluorescence due to probe administration. […]
Region of the pancreas and liver were determined and defined from whole body clean images acquired after sacrificing the animals, and used on all corresponding in vivo images in the same animal. Fluorescent intensity at various time points from the same animal were normalized by fluorescence intensity determined before the start of the caerulein insult and the change in signal intensity was then plotted as a function of time.

[2] = test system: trypsin activity in rat pancreas; test: ex vivo fluorescence imaging of excised pancreas (total signal intensity of activated probe); type: in vivo; settings: Camostat 300 mg/kg orally; vs untreated animals; P<0.01
Protocol: 280–320 g female Sprague Dawley rats were received from Charles Rivers Laboratory. Animals were maintained in a facility with a controlled temperature (21–24°C) and lighting (12∶12 h light: dark cycle). Animals were placed on a chlorophyll-free diet (Harlan TK2916) 10 days prior and for the duration of the imaging study to reduce the amount of autofluorescence and had free access to drinking water. One day prior to the experiment, animals were shaved at the abdomen for imaging studies. The pancreatitis model was induced by hyperstimulation with the cholecystokinin (CCK) analog caerulein (Sigma-Aldrich, St. Louis, MO). […] For studies with Novartis166 and Novartis848, varying concentrations, in a solution, were administered intraperitonealy (IP) only once, one hour before caerulein administration. Self-quenched protease activatable mPEG-PL-Cy5.5 probe was administered to all animals via the tail vein at a dose of 80 nmol/kg 40 minutes prior to the start of caerulein administration for measuring the amount of activated trypsin in the pancreas. […]
as §1

h cathepsin K = h cathepsin K (Homo sapiens, UniProt P43235); test: protease selectivity panel, enzyme activity assay; type: biochemical; settings: 1 h pre-incubation RT
Chain of h cathepsin K (P43235 115-329): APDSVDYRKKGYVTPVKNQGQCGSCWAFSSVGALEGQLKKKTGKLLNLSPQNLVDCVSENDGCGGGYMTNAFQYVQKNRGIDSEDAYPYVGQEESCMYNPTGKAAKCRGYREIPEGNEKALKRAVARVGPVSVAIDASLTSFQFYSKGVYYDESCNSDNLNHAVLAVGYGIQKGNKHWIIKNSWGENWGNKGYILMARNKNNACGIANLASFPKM
Excerpt: (§2) The three drug-like compounds tested in the optical molecular imaging model were characterized for selectivity against a panel of recombinant proteases available at Novartis. The biochemical enzyme activity assays were based on the cleavage of peptidic substrates that are fluorescently labeled. In case of rhodamine-110 label fluorescence intensity and in case of PT14 label fluorescence lifetime was used as readout. The effect of the compound on the enzymatic activity was obtained from the linear part of the substrate cleavage progress curve at substrate concentrations well below KM, typically at 1 µM. All enzyme assays were conducted in 384-well plates with a final assay volume of 25 µl. Enzyme and compound (11 different concentrations from 100 µM to 0.0003 µM) were pre-incubated for one hour at room temperature (RT). Subsequently substrate was added and incubated for 1 h at RT prior to measurement.

h factor Xa = h factor Xa (Homo sapiens, UniProt P00742); test: protease selectivity panel, enzyme activity assay; type: biochemical; settings: 1 h pre-incubation RT
Chain of h factor Xa (P00742 235-488 limits assumed): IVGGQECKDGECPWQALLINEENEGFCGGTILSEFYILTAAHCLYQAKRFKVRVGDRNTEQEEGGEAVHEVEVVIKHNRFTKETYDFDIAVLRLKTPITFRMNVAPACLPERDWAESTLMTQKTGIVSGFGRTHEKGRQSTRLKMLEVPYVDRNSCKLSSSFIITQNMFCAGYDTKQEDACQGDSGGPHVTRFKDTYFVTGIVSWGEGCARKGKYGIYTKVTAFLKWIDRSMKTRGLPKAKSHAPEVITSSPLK
Chain of h factor Xa (P00742 41-179 partner limits assumed): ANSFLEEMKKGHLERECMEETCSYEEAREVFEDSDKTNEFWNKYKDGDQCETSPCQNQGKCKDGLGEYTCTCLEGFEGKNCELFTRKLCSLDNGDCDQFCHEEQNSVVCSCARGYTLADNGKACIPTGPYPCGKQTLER
Excerpt: as §2

h cationic trypsin = h cationic trypsin (Homo sapiens, UniProt P07477); test: protease selectivity panel, enzyme activity assay; type: biochemical; settings: 1 h pre-incubation RT
Excerpt: as §2

h chymase = h chymase (Homo sapiens, UniProt P23946); test: protease selectivity panel, enzyme activity assay; type: biochemical; settings: 1 h pre-incubation RT
Chain of h chymase (P23946 22-247): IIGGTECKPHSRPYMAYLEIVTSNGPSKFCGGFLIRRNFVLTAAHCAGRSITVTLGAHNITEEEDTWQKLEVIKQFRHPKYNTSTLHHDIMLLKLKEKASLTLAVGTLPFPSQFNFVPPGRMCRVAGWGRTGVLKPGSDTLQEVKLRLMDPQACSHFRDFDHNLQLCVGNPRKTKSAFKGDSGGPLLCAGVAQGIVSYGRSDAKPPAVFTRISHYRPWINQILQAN
Excerpt: as §2

h kallikrein 7 = h kallikrein 7 (Homo sapiens, UniProt P49862); test: protease selectivity panel, enzyme activity assay; type: biochemical; settings: 1 h pre-incubation RT
Chain of h kallikrein 7 (P49862 30-253): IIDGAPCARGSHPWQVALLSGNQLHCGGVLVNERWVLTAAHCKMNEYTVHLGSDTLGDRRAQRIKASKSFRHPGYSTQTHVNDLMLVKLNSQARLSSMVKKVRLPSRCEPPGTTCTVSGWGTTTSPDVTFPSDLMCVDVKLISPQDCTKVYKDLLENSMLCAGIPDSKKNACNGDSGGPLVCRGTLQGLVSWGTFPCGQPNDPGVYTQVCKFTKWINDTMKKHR
Excerpt: as §2

h cathepsin C = h cathepsin C (Homo sapiens, UniProt P53634); test: protease selectivity panel, enzyme activity assay; type: biochemical; settings: 1 h pre-incubation RT
Chain of h cathepsin C (P53634 25-463): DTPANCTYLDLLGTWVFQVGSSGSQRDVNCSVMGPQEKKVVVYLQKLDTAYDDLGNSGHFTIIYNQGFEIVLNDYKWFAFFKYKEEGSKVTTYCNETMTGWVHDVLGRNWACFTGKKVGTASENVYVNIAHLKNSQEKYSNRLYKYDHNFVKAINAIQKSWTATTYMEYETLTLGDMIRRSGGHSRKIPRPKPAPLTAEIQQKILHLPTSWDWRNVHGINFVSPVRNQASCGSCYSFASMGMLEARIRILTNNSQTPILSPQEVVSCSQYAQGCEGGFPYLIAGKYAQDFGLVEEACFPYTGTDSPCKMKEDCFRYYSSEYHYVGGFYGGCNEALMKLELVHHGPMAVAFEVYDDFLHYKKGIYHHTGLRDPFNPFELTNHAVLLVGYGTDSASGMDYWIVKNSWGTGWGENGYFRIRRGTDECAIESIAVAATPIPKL
Excerpt: as §2

h cathepsin S = h cathepsin S (Homo sapiens, UniProt P25774); test: protease selectivity panel, enzyme activity assay; type: biochemical; settings: 1 h pre-incubation RT
Excerpt: as §2

h proteinase 3 = h proteinase 3 (Homo sapiens, UniProt P24158); test: protease selectivity panel, enzyme activity assay; type: biochemical; settings: 1 h pre-incubation RT
Chain of h proteinase 3 (P24158 28-256): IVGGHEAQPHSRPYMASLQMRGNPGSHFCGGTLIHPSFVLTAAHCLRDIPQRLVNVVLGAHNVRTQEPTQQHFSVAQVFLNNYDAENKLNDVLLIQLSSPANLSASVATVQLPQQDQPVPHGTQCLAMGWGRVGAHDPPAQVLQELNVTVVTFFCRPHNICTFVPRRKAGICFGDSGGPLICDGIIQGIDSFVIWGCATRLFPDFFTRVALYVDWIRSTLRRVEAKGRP
Excerpt: as §2

h cathepsin G = h cathepsin G (Homo sapiens, UniProt P08311); test: protease selectivity panel, enzyme activity assay; type: biochemical; settings: 1 h pre-incubation RT
Chain of h cathepsin G (P08311 21-255): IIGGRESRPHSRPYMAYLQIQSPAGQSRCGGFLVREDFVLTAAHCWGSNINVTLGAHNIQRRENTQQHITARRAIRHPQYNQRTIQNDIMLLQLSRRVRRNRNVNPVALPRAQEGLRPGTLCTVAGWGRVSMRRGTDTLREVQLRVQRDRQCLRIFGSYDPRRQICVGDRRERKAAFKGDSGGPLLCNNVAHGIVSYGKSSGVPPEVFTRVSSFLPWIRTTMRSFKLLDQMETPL
Excerpt: as §2

h cathepsin B = h cathepsin B (Homo sapiens, UniProt P07858); test: protease selectivity panel, enzyme activity assay; type: biochemical; settings: 1 h pre-incubation RT
Excerpt: as §2

h factor XIa = h factor XIa (Homo sapiens, UniProt P03951); test: protease selectivity panel, enzyme activity assay; type: biochemical; settings: 1 h pre-incubation RT
Chain of h factor XIa (P03951 388-625 limits assumed): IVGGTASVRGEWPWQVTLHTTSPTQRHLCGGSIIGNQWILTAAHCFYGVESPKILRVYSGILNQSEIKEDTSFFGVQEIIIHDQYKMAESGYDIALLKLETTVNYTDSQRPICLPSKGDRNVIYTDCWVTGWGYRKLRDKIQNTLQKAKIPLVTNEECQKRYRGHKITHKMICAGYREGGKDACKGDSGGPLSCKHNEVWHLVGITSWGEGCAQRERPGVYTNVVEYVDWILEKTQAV
Excerpt: as §2

h factor XIIa = h factor XIIa (Homo sapiens, UniProt P00748); test: protease selectivity panel, enzyme activity assay; type: biochemical; settings: 1 h pre-incubation RT
Chain of h factor XIIa (P00748 373-615 limits assumed): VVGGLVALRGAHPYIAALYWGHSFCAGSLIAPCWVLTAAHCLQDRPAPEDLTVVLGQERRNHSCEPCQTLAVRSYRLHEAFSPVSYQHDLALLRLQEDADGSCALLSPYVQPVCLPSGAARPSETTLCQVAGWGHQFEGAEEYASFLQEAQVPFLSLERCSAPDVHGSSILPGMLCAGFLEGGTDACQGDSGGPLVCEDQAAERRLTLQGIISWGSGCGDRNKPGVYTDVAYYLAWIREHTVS
Excerpt: as §2

h factor VIIa = h factor VIIa (Homo sapiens, UniProt P08709); test: protease selectivity panel, enzyme activity assay; type: biochemical; settings: 1 h pre-incubation RT
Chain of h factor VIIa (P08709 213-466 limits assumed): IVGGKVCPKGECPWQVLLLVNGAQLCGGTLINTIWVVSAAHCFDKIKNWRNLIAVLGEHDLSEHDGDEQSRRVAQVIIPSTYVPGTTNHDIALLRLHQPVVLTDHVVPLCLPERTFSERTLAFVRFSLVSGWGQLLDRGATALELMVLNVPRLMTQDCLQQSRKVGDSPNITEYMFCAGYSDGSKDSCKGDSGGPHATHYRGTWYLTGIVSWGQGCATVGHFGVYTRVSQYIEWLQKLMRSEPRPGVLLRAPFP
Chain of h factor VIIa (P08709 61-212 partner limits assumed): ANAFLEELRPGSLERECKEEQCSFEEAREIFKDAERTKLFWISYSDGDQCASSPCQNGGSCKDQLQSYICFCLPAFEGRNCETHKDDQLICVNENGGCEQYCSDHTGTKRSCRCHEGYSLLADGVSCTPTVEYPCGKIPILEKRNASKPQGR
Excerpt: as §2

h cathepsin L = h cathepsin L (Homo sapiens, UniProt P07711); test: protease selectivity panel, enzyme activity assay; type: biochemical; settings: 1 h pre-incubation RT
Chain of h cathepsin L (P07711 114-333): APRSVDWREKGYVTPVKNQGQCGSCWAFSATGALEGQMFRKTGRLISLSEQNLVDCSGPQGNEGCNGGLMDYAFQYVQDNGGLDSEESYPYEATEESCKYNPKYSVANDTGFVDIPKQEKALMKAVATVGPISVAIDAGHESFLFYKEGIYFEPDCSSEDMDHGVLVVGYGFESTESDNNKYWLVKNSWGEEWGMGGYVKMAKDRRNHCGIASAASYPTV
Excerpt: as §2

h matriptase = h matriptase (Homo sapiens, UniProt Q9Y5Y6); test: protease selectivity panel, enzyme activity assay; type: biochemical; settings: 1 h pre-incubation RT
Chain of h matriptase (Q9Y5Y6 whole entry): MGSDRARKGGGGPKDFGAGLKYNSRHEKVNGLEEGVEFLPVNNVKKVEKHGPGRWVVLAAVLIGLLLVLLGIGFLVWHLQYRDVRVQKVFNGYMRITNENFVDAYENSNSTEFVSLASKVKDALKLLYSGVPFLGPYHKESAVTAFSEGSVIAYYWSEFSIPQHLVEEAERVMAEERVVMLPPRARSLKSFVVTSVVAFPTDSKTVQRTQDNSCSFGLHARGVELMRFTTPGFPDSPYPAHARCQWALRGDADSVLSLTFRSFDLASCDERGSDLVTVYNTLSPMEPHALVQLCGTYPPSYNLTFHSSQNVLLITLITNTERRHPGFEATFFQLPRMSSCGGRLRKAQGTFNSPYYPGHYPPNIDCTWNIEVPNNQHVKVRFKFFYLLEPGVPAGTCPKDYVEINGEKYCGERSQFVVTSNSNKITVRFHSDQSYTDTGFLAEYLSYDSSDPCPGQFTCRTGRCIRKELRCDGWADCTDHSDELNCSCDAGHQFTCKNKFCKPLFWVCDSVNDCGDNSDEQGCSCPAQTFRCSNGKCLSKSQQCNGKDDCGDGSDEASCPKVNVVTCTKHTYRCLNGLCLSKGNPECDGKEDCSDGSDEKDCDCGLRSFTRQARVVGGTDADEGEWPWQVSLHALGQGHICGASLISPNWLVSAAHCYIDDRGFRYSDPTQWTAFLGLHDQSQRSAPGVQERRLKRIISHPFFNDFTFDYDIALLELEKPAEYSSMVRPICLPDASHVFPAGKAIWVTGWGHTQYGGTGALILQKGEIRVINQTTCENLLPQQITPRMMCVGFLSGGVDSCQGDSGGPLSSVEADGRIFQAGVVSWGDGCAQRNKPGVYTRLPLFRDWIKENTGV
Excerpt: as §2

h neutrophil elastase = h neutrophil elastase (Homo sapiens, UniProt P08246); test: protease selectivity panel, enzyme activity assay; type: biochemical; settings: 1 h pre-incubation RT
Excerpt: as §2

h kallikrein 5 = h kallikrein 5 (Homo sapiens, UniProt Q9Y337); test: protease selectivity panel, enzyme activity assay; type: biochemical; settings: 1 h pre-incubation RT
Excerpt: as §2

h kallikrein 1 = h kallikrein 1 (Homo sapiens, UniProt P06870); test: protease selectivity panel, enzyme activity assay; type: biochemical; settings: 1 h pre-incubation RT
Chain of h kallikrein 1 (P06870 25-262): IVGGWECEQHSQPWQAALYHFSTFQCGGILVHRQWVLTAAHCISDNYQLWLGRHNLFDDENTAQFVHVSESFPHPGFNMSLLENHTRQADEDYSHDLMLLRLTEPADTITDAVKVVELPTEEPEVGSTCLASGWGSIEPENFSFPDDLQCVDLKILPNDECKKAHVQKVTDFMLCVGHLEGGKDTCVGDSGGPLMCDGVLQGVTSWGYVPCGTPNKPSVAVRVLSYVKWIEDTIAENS
Excerpt: as §2

h plasma kallikrein = h plasma kallikrein (Homo sapiens, UniProt P03952); test: protease selectivity panel, enzyme activity assay; type: biochemical; settings: 1 h pre-incubation RT
Chain of h plasma kallikrein (P03952 20-638): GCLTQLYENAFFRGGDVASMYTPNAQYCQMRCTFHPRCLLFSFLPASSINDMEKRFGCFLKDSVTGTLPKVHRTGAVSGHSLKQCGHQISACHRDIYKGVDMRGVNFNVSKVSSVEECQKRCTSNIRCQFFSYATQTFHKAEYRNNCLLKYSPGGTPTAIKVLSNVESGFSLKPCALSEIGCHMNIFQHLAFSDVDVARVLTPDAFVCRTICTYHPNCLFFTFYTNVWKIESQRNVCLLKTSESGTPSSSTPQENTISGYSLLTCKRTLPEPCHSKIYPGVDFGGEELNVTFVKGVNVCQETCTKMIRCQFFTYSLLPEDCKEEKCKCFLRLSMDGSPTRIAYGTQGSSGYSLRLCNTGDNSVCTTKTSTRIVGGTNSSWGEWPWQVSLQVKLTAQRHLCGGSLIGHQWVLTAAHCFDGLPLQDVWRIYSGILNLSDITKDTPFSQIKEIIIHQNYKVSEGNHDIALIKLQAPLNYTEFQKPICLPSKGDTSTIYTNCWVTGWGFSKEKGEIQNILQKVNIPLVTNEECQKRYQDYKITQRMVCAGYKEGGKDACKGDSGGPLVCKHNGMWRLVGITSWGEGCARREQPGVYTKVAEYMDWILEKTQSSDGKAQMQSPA
Excerpt: as §2

h chymotrypsin = test: protease selectivity panel, enzyme activity assay; type: biochemical, human; settings: 1 h pre-incubation RT
Excerpt: as §2

h pancreatic elastase = test: protease selectivity panel, enzyme activity assay; type: biochemical, human; settings: 1 h pre-incubation RT
Excerpt: as §2

trypsin [3] = test: assessment of trypsin concentration in pancreas extracts; type: in vivo, rat; settings: Camostat 300 mg/kg orally; vs untreated saline animals
Protocol: The pancreas was removed from the euthanized animals, weighted and transferred into Dispomix tubes (Miltenyi Biotec, Bergisch Gladbach, Germany). After the addition of ice-cold PBS buffer (1 µl per […]), the pancreas was homogenized with a gentleMACS™ Dissociator (Miltenyi Biotec, Bergisch Gladbach, Germany). The homogenate was centrifuged at 4°C and 20,000 g for 10 min. The supernatant was stored at −20°C. The activity assay was performed at room temperature in 384-well plates in a total assay volume of 20 µl per well. For fluorescence quantification a Safire2 (Tecan, Maennedorf, Switzerland) instrument was used with fluorescence excitation and emission wavelengths of 485 nm and 535 nm, respectively. 10 µl of dilutions of extracts (typical range: 1∶500 to 1∶2,000) were transferred to 384 well assay plates. […] The enzymatic activity in the pancreatic extract was obtained from the linear progression curves and determined after one hour. Signal-to-background (S/B) values within the linear range of the assay signal were selected to calculate the trypsin concentrations of the extract analyzed. […] The amount of trypsin was calculated by transforming S/B levels obtained in the activity assay of extract dilutions fulfilling initial enzyme velocity criteria into trypsin concentration values via a calibration curve using recombinant rat trypsin S1-94.

[4] = test system: rat caerulein-injection pancreatitis model; test: in vivo edema imaging with blood pool agent Angiosense 680; settings: Camostat 300 mg/kg orally; three caerulein doses SC
trypsin [5] = test: mPEG-PL-Cy5.5 probe activation by pancreatic enzymes with or without SPINK1; type: biochemical; settings: 0.2 µM probe, 100 nM enzyme, 1 µM SPINK1
Protocol: All enzyme assays were conducted in 384-well plates with a final substrate ( = mPEG-PL-Cy5.5 probe) concentration of 0.2 µM diluted in the appropriate assay buffer in a final assay volume of 25 µl. Enzyme and, in cases where applied, SPINK-1 (final assay concentration: 1 µM) were pre-incubated for one hour at room temperature. Subsequently substrate was added and incubated for 3 h at 37°C prior to measurement. All enzymes were either commercially obtained or prepared as described previously, [17], [18], [19].
Enzyme, SPINK-1 and substrate solutions were transferred to 384-well plates by means of a CyBi Well pipettor (CyBio, Jena, Germany). Plate measurements were conducted by the means of a Safire2 microplate reader (TECAN, Maennedorf, Switzerland) and wavelengths of 680 nm and 700 nm were taken for fluorescence excitation and emission acquisition, respectively. The bandwidths were set to 10 nm in both the excitation and the emission path. The fluorescence in each well was excited by three flashes per measurement.

`CN(C)C(=O)COC(=O)Cc1ccc(OC(=O)c2ccc(NC(=N)N)cc2)cc1` [Camostat] was tested, and the “in vivo mPEG-PL-Cy5.5 probe activation in pancreas” value [1] was “reduced probe activation”, the “probe activation in dissected pancreas (ex vivo)” value [2] was “suppressed” and the IC50 (h cathepsin K) was over 50 µM. It also gave an IC50 (h factor Xa) of 6.6 µM, an IC50 (h cationic trypsin) of 0.0028 µM and an IC50 (h chymase) of over 50 µM. The IC50 (h kallikrein 7) was 41.5 µM, the IC50 (h cathepsin C) was over 50 µM and the IC50 (h cathepsin S) was over 50 µM. For the same compound, the IC50 (h proteinase 3) was over 50 µM, the IC50 (h cathepsin G) was 44.6 µM and the IC50 (h cathepsin B) was over 50 µM. It also gave an IC50 (h factor XIa) of 0.008 µM, an IC50 (h factor XIIa) of 8 µM and an IC50 (h factor VIIa) of 0.531 µM. It also gave an IC50 (h cathepsin L) of over 50 µM, an IC50 (h matriptase) of 0.0065 µM and an IC50 (h neutrophil elastase) of 91.4 µM. It also gave an IC50 (h kallikrein 5) of 0.1 µM, an IC50 (h kallikrein 1) of 72.4 µM and an IC50 (h plasma kallikrein) of 0.002 µM. For the same compound, the IC50 (h chymotrypsin) was 12.2 µM, the IC50 (h pancreatic elastase) was over 50 µM and the “amount of enzymatically active trypsin in pancreas” value (trypsin [3]) was “significant reduction in the amount of active trypsin”. The “Angiosense 680 signal in pancreas (edema imaging)” value [4] was “no signal enhancement”.
“SPINK1: highly specific trypsin inhibiting protein; endogenous trypsin inhibitor Kazal type 1 (DSLGREAKCYNELNGCTKIYDPVCGTDGNTYPNECVLCFENRKRQTSILIQKSGPC; UniProt P00995 24-79, looked up)” was tested, and the “protease activation of mPEG-PL-Cy5.5 probe by trypsin in the presence of SPINK1” value (trypsin [5]) was “suppressed to background levels”.
